Tests used:
Test in all cases: relative viability (nuclei count vs DMSO), 5 days (fraction); higher = more cells survive
Dovitinib + Linsitinib = compound: CN1CCN(c2ccc3nc(-c4c(N)c5c(F)cccc5[nH]c4=O)[nH]c3c2)CC1 [Dovitinib] + C[C@]1(O)C[C@@H](c2nc(-c3ccc4ccc(-c5ccccc5)nc4c3)c3c(N)nccn32)C1 [Linsitinib] (partner 1 µM)
How it was run: (§1)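 The day after seeding in 1536-well plates, lung cancer cell lines were treated by pin tool with a single drug, or with a fixed anchor-drug dose together with five library-drug doses (not always all listed) in √10 steps. After 5 days, a combined fix-and-stain solution (final 0.05% Triton X-100, 1% formaldehyde, 1 ug/ml Hoechst) was added. Nuclei counted on 4× images gave relative viability as treated counts over vehicle counts, reported as the median of duplicate plates.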

Dovitinib + Pictilisib = compound: CN1CCN(c2ccc3nc(-c4c(N)c5c(F)cccc5[nH]c4=O)[nH]c3c2)CC1 [Dovitinib] + CS(=O)(=O)N1CCN(Cc2cc3nc(-c4cccc5[nH]ncc45)nc(N4CCOCC4)c3s2)CC1 [Pictilisib] (partner 1 µM)
How it was run: as §1

Dovitinib + Alpelisib = compound: CN1CCN(c2ccc3nc(-c4c(N)c5c(F)cccc5[nH]c4=O)[nH]c3c2)CC1 [Dovitinib] + Cc1nc(NC(=O)N2CCC[C@H]2C(N)=O)sc1-c1ccnc(C(C)(C)C(F)(F)F)c1 [Alpelisib] (partner 2 µM)
How it was run: as §1

Dovitinib + Decitabine = compound: CN1CCN(c2ccc3nc(-c4c(N)c5c(F)cccc5[nH]c4=O)[nH]c3c2)CC1 [Dovitinib] + Nc1ncn([C@H]2C[C@H](O)[C@@H](CO)O2)c(=O)n1 [Decitabine] (partner 2 µM)
How it was run: as §1

| Cell Line | relative viability (Dovitinib + Linsitinib; first compound 0.02 µM) | relative viability (Dovitinib + Linsitinib; first compound 0.2 µM) | relative viability (Dovitinib + Linsitinib; first compound 0.6325 µM) | relative viability (Dovitinib + Linsitinib; first compound 2 µM) | relative viability (Dovitinib + Pictilisib; first compound 0.02 µM) | relative viability (Dovitinib + Pictilisib; first compound 0.2 µM) | relative viability (Dovitinib + Pictilisib; first compound 0.6325 µM) | relative viability (Dovitinib + Pictilisib; first compound 2 µM) | relative viability (Dovitinib + Alpelisib; first compound 0.02 µM) | relative viability (Dovitinib + Alpelisib; first compound 0.2 µM) | relative viability (Dovitinib + Alpelisib; first compound 0.6325 µM) | relative viability (Dovitinib + Alpelisib; first compound 2 µM) | relative viability (Dovitinib + Decitabine; first compound 0.02 µM) | relative viability (Dovitinib + Decitabine; first compound 0.06325 µM) | relative viability (Dovitinib + Decitabine; first compound 0.2 µM) | relative viability (Dovitinib + Decitabine; first compound 0.6325 µM) | relative viability (Dovitinib + Decitabine; first compound 2 µM) | relative viability (Dovitinib + Linsitinib; first compound 0.06325 µM) | relative viability (Dovitinib + Pictilisib; first compound 0.06325 µM) | relative viability (Dovitinib + Alpelisib; first compound 0.06325 µM) |
| --- | --- | --- | --- | --- | --- | --- | --- | --- | --- | --- | --- | --- | --- | --- | --- | --- | --- | --- | --- | --- |
| HCC-78 | 0.693 | 0.626 | 0.478 | 0.532 | 0.206 | 0.24 | 0.272 | 0.213 | 0.422 | 0.384 | 0.364 | 0.316 | 0.741 | 0.659 | 0.686 | 0.655 | 0.631 |  |  |  |
| NCI-H2085 | 0.927 | 1.07 | 0.913 | 0.917 | 0.553 | 0.443 | 0.502 | 0.451 | 1.05 | 0.88 | 0.936 | 1.03 | 0.606 | 0.532 | 0.592 | 0.573 | 0.558 | 1.08 | 0.465 | 0.987 |
| PC-14 | 1.03 | 0.969 | 0.996 | 0.928 | 0.632 | 0.685 | 0.691 | 0.543 | 0.805 | 0.966 | 0.946 | 0.883 | 0.21 | 0.224 | 0.241 | 0.217 | 0.22 | 0.954 | 0.72 | 1.03 |
| NCI-H2342 |  |  |  |  |  |  |  |  |  |  |  |  | 0.799 | 0.697 | 0.672 | 0.756 | 0.776 |  |  |  |
| A-427 | 1.05 | 1.14 | 1.09 | 1.08 | 0.724 | 0.573 | 0.585 | 0.774 | 0.979 | 1.07 | 0.938 | 1.03 | 0.569 | 0.512 | 0.695 | 0.581 | 0.59 | 1.07 | 0.625 | 1.03 |
| H3255 | 1 | 1.01 | 1.02 | 1.02 | 0.539 | 0.498 | 0.516 | 0.514 | 0.785 | 0.735 | 0.8 | 0.937 | 0.609 | 0.642 | 0.603 | 0.636 | 0.614 | 0.937 | 0.514 | 0.655 |
| HCC-44 | 0.681 | 0.681 | 0.773 | 0.628 | 0.516 | 0.642 | 0.62 | 0.591 | 0.721 | 0.835 | 0.856 | 0.747 | 0.926 | 0.936 | 0.97 | 0.962 | 0.92 | 0.667 | 0.594 | 0.783 |
| NCI-H1734 | 0.961 | 0.843 | 0.902 | 0.833 | 0.475 | 0.413 | 0.437 | 0.397 | 0.711 | 0.675 | 0.626 | 0.641 | 0.49 | 0.519 | 0.472 | 0.506 | 0.467 | 0.862 | 0.457 | 0.697 |
| NCI-H2228 | 0.789 | 0.669 | 0.967 | 0.633 | 0.317 | 0.335 | 0.462 | 0.271 | 0.997 | 0.61 | 0.837 | 0.565 |  |  |  |  |  | 0.632 | 0.345 | 0.674 |

Reference: the supplement of paper PMC10307832
